The term IC50 denotes the concentration needed to halve the response being measured.

Results on one molecule are retold here after publication doi:10.1101/2022.02.10.480023v1 (biorxiv, 2022).

The test has as its target T1, AbDHDPS (Acinetobacter baumannii, UniProt D0CFC3).
T1 sequence (D0CFC3 1-297): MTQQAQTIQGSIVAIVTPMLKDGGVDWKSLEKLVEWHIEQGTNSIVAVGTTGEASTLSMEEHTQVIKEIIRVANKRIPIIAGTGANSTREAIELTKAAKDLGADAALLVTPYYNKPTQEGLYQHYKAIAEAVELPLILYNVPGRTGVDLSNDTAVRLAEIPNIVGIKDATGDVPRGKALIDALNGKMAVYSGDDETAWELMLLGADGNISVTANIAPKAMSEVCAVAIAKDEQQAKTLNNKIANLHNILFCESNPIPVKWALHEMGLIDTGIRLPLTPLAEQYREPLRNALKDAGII
Put plainly: DHDPS-DHDPR coupled assay, NADPH oxidation at […] nm. In kind it is biochemical.

Turning to `CS(=O)(=O)NNc1ccccc1` [N’-phenylmethanesulfonohydrazide], half-maximal inhibition (IC50) required 35 µM.
